Data set [1] in a line: LD50 of physostigmine (relative toxicity in rats). The settings on record: rat, in vivo, ip.
The nature of data set [2]: Morris Swimming Maze in AF64A- and CSF-injected rats. Format: in vivo, male Sprague Dawley rats. The settings on record: AF102B 1 mg./kg., ip, physostigmine 0.1 mg./kg. The protocol:
38 male Sprague Dawley rats (raised by Charles River) 5-6 months old with an average weight of 500 g. were used. The rats were housed in groups of 5 and were given free access to food and water. Testing was carried out in a round white metal tub 1.4 m. diameter and 0.4 m. deep. The tub was filled with water, made opaque by milk powder to the level of 18 cm. A platform of 12 cm. diameter and at a height of 16 cm. was placed in the tub 2 cm. below water level. The platform was covered with gauze to prevent the animal from slipping back into the water after reaching the platform.
Prior to testing, the rat was placed on the platform for 120 secs., placed gently into the water, facing the wall of the pool, at one of four starting locations (north, south, east or west) around the pool's perimeter. Within each block of four trials, each rat was started at each of the four starting locations, with the sequence of starting locations randomly selected. Testing was carried out on 2 consecutive days with each rat submitted daily to eight trials. During trials 1-12 the platform was located in the center of the south-east quadrant and during trials 13-16 the platform was transferred to the center of the north-west quadrant. If in a particular trial the rat found the platform, it was permitted to remain on it for 60 secs. before starting the next trial. […] The latency to find the platform was measured.
For drug testing, rats were injected with AF64A or CSF (3 nmole/2 ul/side) as described in Experiment 2, above. The rats were subjected first to a step-through learning procedure (see Experiment 1, above) and were 3-3.5 months after injection when tested in the water maze. The rats were divided into 4 groups; 18 CSF-injected rats were treated either with physostigmine (0.1 mg./kg. ip) (10 rats) or with saline (8 rats). 20 AF64A-injected rats were divided similarly. The rats were injected with physostigmine immediately before testing on each day.
Forty male Sprague-Dawley rats (obtained from Charles River Breeding Laboratories U.K.), 5-6 months old, weighing 450-580 g. during the experiment served as subjects. Rats were housed in groups of 5 and were given free access to food and water. 2.5-3.5 months before behavioral testing, rats were injected with AF64A (3 nmole/2 ul/side) (20 rats-group 1) or CSF (20 rats-group 2) as described in the surgery procedure.
Each of the injected groups was randomly subdivided into two equal size treatment groups.

Details of data set [3]: species or system Male Sprague-Dawley rats. Particulars: rat, in vivo.

The structures appear in SMILES notation. Where “and” joins values, the source holds several entries; their conditions need not be identical. Equal entries are not always repeated. Entries after “also recorded” stand apart in the source; their conditions may differ.

Usually LD50 stands for the dose at which mortality reaches 50%. A low value points to greater toxicity. In data set [1], `CNC(=O)Oc1ccc2c(c1)[C@]1(C)CCN(C)[C@@H]1N2C` [physostigmine, reference compound] gave a median lethal dose (LD50) of 1 to 2 mg/kg. For the same compound, the “effect in Morris Swimming Maze” value in data set [2] is given as “negative effect; also recorded: inhibited the decrease of the escape-latency curve”. Further, in data set [2] (listed as Physostigmine), the “effect in Morris Swimming Maze” value was “worsens; also recorded: apparently impaired the performance of both AF64A and CSF-injected groups”. In data set [3], the Initial-test latency was 25.50 ± 5.68 s and 29.70 ± 7.93 s; the “reversal of AF64A-induced memory impairments in passive avoidance” value is on record as “could be reversed”. Further, in data set [3] (ip), the Retention-test latency was 458.90 ± 63.33 s and 576.10 ± 22.69 s; the Therapeutic index is 5-17 and 10-17; the “retention of passive avoidance (statistics)” value is “significantly longer, F(1,36)=5.91, p=0.05; also recorded: significantly improved; also recorded: the retention of the CSF-injected group was not affected”.

Values taken from patent publication US4855290A (priority 1985, dated 1989).
